Assay results reported in patent US20260035382A1, “COMPOUNDS AS SUMO ACTIVATING ENZYME INHIBITORS” (WIGEN BIOMEDICINE TECHNOLOGY (SHANGHAI) CO., LTD., priority 2022, published 2026).

The compounds below were run against SAE (Homo sapiens (Human), UniProt Q9UBT2) (assay: In vitro inhibitory activity assay against SAE (SUMO-2/3 immunofluorescence in HCT116 cells)). Conditions: 6 h incubation, class symbols, read-out: SUMO IF IC50.
Format: cell-based
Experimental: HCT116 cells were seeded into a 96-well black transparent bottom plate at about 20000/well with 90 μL per well. The cells were incubated at 37° C. overnight for 24 h. The test compounds were 10-fold diluted to give a final concentration, and 10 μL of the diluted compounds was added to each well of the cell culture plate. The mixture was incubated at 37° C. for 6 h. The cells were then washed gently, the culture medium was discarded, and the cells were washed once with 200 μL of 0.1% o PBST. 50 μL of 4% PFA was added to each well, and the cells were immobilized at room temperature for 20 min, and then washed with PBS 2-3 times. 50 μL of 0.2% o Triton X-100 was added to each well, and the cells were left to stand at room temperature for 15 min and washed with 0.1% PBST 3 times. 100 uL of 3% BSA (0.6 g BSA+20 mL PBS) was added to each well, and the mixture was blocked at 37° C. for 30 min. After the blocking was completed, the liquid was removed and a primary antibody (SUMO-2/3 (181H8) Rabbit mAb, 1:400 dilution) was prepared with […]. 30 μL of the diluted primary antibody was added to each well, and the mixture was incubated at 4° C. overnight. The cells were washed 3 times with 200 μL of 0.1% o PBST. A FITC secondary antibody (Fluorescein (FITC)-conjugated Affinipure Goat Anti-Rabbit IgG (H+L), 1:300 dilution) was further prepared with 1% o BSA, and 40 μL of the diluted secondary antibody was added to each well. The mixture was incubated at room temperature in the dark for 2 h, and then the cells were washed 4 times with 0.1% PBST. The fluorescence signal of the sample was detected and compared to the DMSO group, and the inhibition rate and IC50 were calculated.

Chain of SAE (Q9UBT2 whole entry): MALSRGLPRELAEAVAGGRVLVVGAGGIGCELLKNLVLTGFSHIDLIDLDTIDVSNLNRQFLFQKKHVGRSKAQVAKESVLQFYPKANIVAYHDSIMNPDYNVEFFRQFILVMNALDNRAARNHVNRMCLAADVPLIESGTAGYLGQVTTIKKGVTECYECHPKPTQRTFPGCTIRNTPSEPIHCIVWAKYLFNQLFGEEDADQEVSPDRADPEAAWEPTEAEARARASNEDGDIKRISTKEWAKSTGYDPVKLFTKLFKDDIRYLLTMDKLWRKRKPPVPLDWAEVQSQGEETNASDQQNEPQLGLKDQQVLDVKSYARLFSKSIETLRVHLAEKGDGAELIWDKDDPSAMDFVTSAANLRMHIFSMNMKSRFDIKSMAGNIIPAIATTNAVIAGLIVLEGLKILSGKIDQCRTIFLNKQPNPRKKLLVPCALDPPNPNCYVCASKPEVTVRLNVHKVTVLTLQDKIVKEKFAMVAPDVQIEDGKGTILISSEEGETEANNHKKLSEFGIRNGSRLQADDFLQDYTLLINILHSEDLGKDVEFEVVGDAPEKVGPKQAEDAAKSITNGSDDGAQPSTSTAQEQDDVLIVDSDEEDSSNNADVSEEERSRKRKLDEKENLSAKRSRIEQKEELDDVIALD
Chain of SAE (Q9UBE0 whole entry partner): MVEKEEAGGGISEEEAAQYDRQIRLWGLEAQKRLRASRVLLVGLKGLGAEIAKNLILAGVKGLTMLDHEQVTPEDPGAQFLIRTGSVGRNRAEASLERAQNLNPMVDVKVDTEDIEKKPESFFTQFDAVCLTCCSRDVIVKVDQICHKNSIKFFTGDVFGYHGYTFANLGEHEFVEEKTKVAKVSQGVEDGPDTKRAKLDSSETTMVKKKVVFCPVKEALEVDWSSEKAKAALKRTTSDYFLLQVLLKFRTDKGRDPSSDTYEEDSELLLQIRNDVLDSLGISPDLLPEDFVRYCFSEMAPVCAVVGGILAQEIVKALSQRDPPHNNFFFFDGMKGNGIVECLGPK

C=CCN1Cc2sc(C(=O)c3cncnc3N[C@@H]3C[C@H](COS(N)(=O)=O)[C@@H](O)C3)cc2C2(C1)NCCc1ccc(Cl)cc12 (stereo partly drawn) [Compound 190] and NS(=O)(=O)OC[C@H]1C[C@@H](Nc2ncncc2C(=O)c2cc3c(s2)CCC32NCCc3ccc(Cl)cc32)C[C@@H]1O (stereo partly drawn) [Compound 46] cannot be ordered by IC50: at most 50 nM for the first, 50 to 200 nM for the second.

NS(=O)(=O)OC[C@H]1C[C@@H](Nc2ncncc2C(=O)c2cc3c(s2)CC[C@]32OCCc3ccc(Cl)cc32)C[C@@H]1O [Compound 243] and NS(=O)(=O)OC[C@H]1C[C@@H](Nc2ncncc2C(=O)c2cc3c(s2)CCC32OCCc3ccc(Cl)cc32)C[C@@H]1O (stereo partly drawn) [Compound 84] cannot be ordered by IC50: at most 50 nM for the first, at most 50 nM for the second.

NS(=O)(=O)OC[C@H]1C[C@@H](Nc2ncncc2C(=O)c2cc3c(s2)CC[C@]32NCC3(CC3)c3ccc(Cl)cc32)C[C@@H]1O [Compound 240] and NS(=O)(=O)OC[C@H]1C[C@@H](Nc2ncncc2C(=O)c2cc3c(s2)CCC[C@]32NC3(CC3)Cc3ccc(Cl)cc32)C[C@@H]1O [Compound 220] fall in the same range of IC50: 50 to 200 nM for the first, 50 to 200 nM for the second.

First: NS(=O)(=O)OC[C@H]1C[C@@H](Nc2ncncc2C(=O)c2cc3c(s2)COCC32NCCc3cc(F)c(Cl)cc32)C[C@@H]1O (stereo partly drawn) [Compound 106]
Second: NS(=O)(=O)OC[C@H]1C[C@@H](Nc2ncncc2C(=O)c2cc3c(s2)COC[C@@]32NCCc3cc(F)c(Cl)cc32)C[C@@H]1O [Compound 107]
The IC50 of the first is lower: 50 to 200 nM for the first, over 200 nM for the second. The first is the more potent here.

CN1Cc2sc(C(=O)c3cncnc3N[C@@H]3C[C@H](COS(N)(=O)=O)[C@@H](O)C3)cc2[C@]2(C1)OCCc1ccc(F)cc12 [Compound 258] and CCN1Cc2sc(C(=O)c3cncnc3N[C@@H]3C[C@H](COS(N)(=O)=O)[C@@H](O)C3)cc2[C@]2(C1)OCCc1ccc(F)cc12 [Compound 264] cannot be ordered by IC50: at most 50 nM for the first, at most 50 nM for the second.

First: NS(=O)(=O)OC[C@H]1C[C@@H](Nc2ncncc2C(=O)c2cc3c(s2)CCC[C@]32OCCc3ccc(Cl)cc32)C[C@@H]1O [Compound 222]
Second: NS(=O)(=O)OC[C@H]1C[C@@H](Nc2ncncc2C(=O)c2cc3c(s2)CCC[C@@]32OCCc3ccc(Cl)cc32)C[C@@H]1O [Compound 221]
The IC50 of the first is lower: at most 50 nM for the first, over 200 nM for the second.

Cc1ccc2c(c1)C1(CCCc3sc(C(=O)c4cncnc4N[C@@H]4C[C@H](COS(N)(=O)=O)[C@@H](O)C4)cc31)NCC2 (stereo partly drawn) [Compound 22] and NS(=O)(=O)OC[C@H]1C[C@@H](Nc2ncncc2C(=O)c2cc3c(s2)CCCC32NCCc3ccccc32)C[C@@H]1O (stereo partly drawn) [Compound 1] fall in the same range of IC50: 50 to 200 nM for the first, 50 to 200 nM for the second.

NS(=O)(=O)OC[C@H]1C[C@@H](Nc2ncncc2C(=O)c2cc3c(s2)CCCC32NCCc3cc(F)c(Cl)cc32)C[C@@H]1O (stereo partly drawn) [Compound 27] and NS(=O)(=O)OC[C@H]1C[C@@H](Nc2ncncc2C(=O)c2cc3c(s2)CCC[C@]32NCCc3cc(Cl)c(Cl)cc32)C[C@@H]1O [Compound 208] cannot be ordered by IC50: at most 50 nM for the first, at most 50 nM for the second.

NS(=O)(=O)OC[C@H]1C[C@@H](Nc2ncncc2C(=O)c2cc3c(s2)C=C[C@]32OCCc3ccc(F)cc32)C[C@@H]1O [Compound 294] and NS(=O)(=O)OC[C@H]1C[C@@H](Nc2ncncc2C(=O)c2cc3c(s2)C=CC32NCCc3ccc(F)cc32)C[C@@H]1O (stereo partly drawn) [Compound 79] cannot be ordered by IC50: at most 50 nM for the first, 50 to 200 nM for the second.

NS(=O)(=O)OC[C@H]1C[C@@H](Nc2ncncc2C(=O)c2cc3c(s2)OC[C@@]32NCCc3ccccc32)C[C@@H]1O [Compound 56] and NS(=O)(=O)OC[C@H]1C[C@@H](Nc2ncncc2C(=O)c2cc3c(s2)OC[C@@]32NCCc3ccc(F)cc32)C[C@@H]1O [Compound 59] cannot be ordered by IC50: over 200 nM for the first, over 200 nM for the second.

First: NS(=O)(=O)OC[C@H]1C[C@@H](Nc2ncncc2C(=O)c2cc3c(s2)CCCC32NCCc3ncc(Cl)cc32)C[C@@H]1O (stereo partly drawn) [Compound 139]
Second: NS(=O)(=O)OC[C@H]1C[C@@H](Nc2ncncc2C(=O)c2cc3c(s2)CSC[C@@]32NCCc3cnc(Cl)cc32)C[C@@H]1O [Compound 143]
The IC50 of the first is lower: 50 to 200 nM for the first, over 200 nM for the second. The first is the more potent here.

First: NS(=O)(=O)OC[C@H]1C[C@@H](Nc2ncncc2C(=O)c2cc3c(s2)CCC[C@@]32OCCc3ccccc32)C[C@@H]1O [Compound 245]
Second: NS(=O)(=O)OC[C@H]1C[C@@H](Nc2ncncc2C(=O)c2cc3c(s2)CCCC32OCCc3ccc(F)cc32)C[C@@H]1O (stereo partly drawn) [Compound 247]
The IC50 of the first is higher: over 200 nM for the first, 50 to 200 nM for the second.

CN1CCc2ccc(Cl)cc2[C@]12CCCc1sc(C(=O)c3cncnc3N[C@@H]3C[C@H](COS(N)(=O)=O)[C@@H](O)C3)cc12 [Compound 131] and CCN1Cc2sc(C(=O)c3cncnc3N[C@@H]3C[C@H](COS(N)(=O)=O)[C@@H](O)C3)cc2[C@@]2(C1)OCCc1ccc(Cl)cc12 [Compound 266] cannot be ordered by IC50: over 200 nM for the first, over 200 nM for the second.

Compared with NS(=O)(=O)OC[C@H]1C[C@@H](Nc2ncncc2C(=O)c2cc3c(s2)CNC[C@@]32NCCc3ccc(Cl)cc32)C[C@@H]1O [Compound 119], NS(=O)(=O)OC[C@H]1C[C@@H](Nc2ncncc2C(=O)c2cc3c(s2)OC[C@]32NCCc3ccc(Cl)cc32)C[C@@H]1O [Compound 63] is lower in IC50: over 200 nM for the first, 50 to 200 nM for the second.

NS(=O)(=O)OC[C@H]1C[C@@H](Nc2ncncc2C(=O)c2cc3c(s2)CCC32NCCc3ccc(C(F)(F)F)cc32)C[C@@H]1O (stereo partly drawn) [Compound 67] and COc1ccc2c(c1)[C@@]1(CCc3sc(C(=O)c4cncnc4N[C@@H]4C[C@H](COS(N)(=O)=O)[C@@H](O)C4)cc31)NCC2 [Compound 225] fall in the same range of IC50: 50 to 200 nM for the first, 50 to 200 nM for the second.

First: [2H]C1([2H])CN[C@]2(C=Cc3sc(C(=O)c4cncnc4N[C@@H]4C[C@H](COS(N)(=O)=O)[C@@H](O)C4)cc32)c2cc(Cl)ccc21 [Compound 238]
Second: NS(=O)(=O)OC[C@H]1C[C@@H](Nc2ncncc2C(=O)c2nc3c(s2)CSCC32NCCc3ccc(Cl)cc32)C[C@@H]1O (stereo partly drawn) [Compound 127]
The IC50 of the first is lower: at most 50 nM for the first, over 200 nM for the second.

NS(=O)(=O)OC[C@H]1C[C@@H](Nc2ncncc2C(=O)c2cc3c(s2)CC[C@]32OCCc3ccc(F)cc32)C[C@@H]1O [Compound 285] and NS(=O)(=O)OC[C@H]1C[C@@H](Nc2ncncc2C(=O)c2cc3c(s2)CSCC32NCCc3ccc(Cl)nc32)C[C@@H]1O (stereo partly drawn) [Compound 145] fall in the same range of IC50: 50 to 200 nM for the first, 50 to 200 nM for the second.

Work on NS(=O)(=O)OC[C@H]1C[C@@H](Nc2ncncc2C(=O)c2nc3c(s2)COCC32NCCc3ccc(Cl)cc32)C[C@@H]1O (stereo partly drawn) [Compound 124] yielded an IC50 of over 200 nM.

Same assay, conditions: 6 h incubation, numeric values, read-out: SUMO IF IC50

First: NS(=O)(=O)OC[C@H]1C[C@@H](Nc2ncncc2C(=O)c2cc3c(s2)CSC[C@]32NCCc3ccc(Cl)cc32)C[C@@H]1O [Compound 93]
Second: NS(=O)(=O)OC[C@H]1C[C@@H](Nc2ncncc2C(=O)c2cc3c(s2)CCC[C@@]32NCCc3ccc(Cl)cc32)C[C@@H]1O [Compound 5]
The IC50 of the first is lower: 28.9 nM for the first, over 1000 nM for the second. The first is the more potent here.

NS(=O)(=O)OC[C@H]1C[C@@H](Nc2ncncc2C(=O)c2cc3c(s2)CCC[C@@]32NCCc3ccc(F)cc32)C[C@@H]1O [Compound 8] and NS(=O)(=O)OC[C@H]1C[C@@H](Nc2ncncc2C(=O)c2cc3c(s2)COC[C@@]32NCCc3ccc(F)cc32)C[C@@H]1O [Compound 17] cannot be ordered by IC50: over 1000 nM for the first, over 1000 nM for the second.

Compared with NS(=O)(=O)OC[C@H]1C[C@@H](Nc2ncncc2C(=O)c2cc3c(s2)COC[C@]32NCCc3ccc(F)cc32)C[C@@H]1O [Compound 18], CN1Cc2sc(C(=O)c3cncnc3N[C@@H]3C[C@H](COS(N)(=O)=O)[C@@H](O)C3)cc2[C@@]2(C1)NCCc1ccc(Cl)cc12 [Compound 113] is higher in IC50: 104 nM for the first, over 1000 nM for the second.

C=CCN1Cc2sc(C(=O)c3cncnc3N[C@@H]3C[C@H](COS(N)(=O)=O)[C@@H](O)C3)cc2[C@]2(C1)NCCc1ccc(Cl)cc12 [Compound 192] gave an IC50 of 25.1 nM.
